For test [1], the target named is T1, CFTR (Homo sapiens, UniProt P13569). Briefly: Membrane Potential Dye, Enteroid Assay B. Format: cell-based. As to conditions: for EC50: read-out: Ent. B EC50. The gist of the method: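 Activity given as % of a triple-combination reference (1 μM and 3 μM correctors, 300 nM acute potentiator). Enteroids were preincubated 18-24 h with compound; chloride efflux then measured 15 min by methyl oxonol fluorescence after forskolin/IBMX/Compound III stimulation in chloride-free buffer containing CaCCinh-A01 and Chicago Sky Blue.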
T1 sequence (P13569 with tags, fused parts or gaps DEL508-508): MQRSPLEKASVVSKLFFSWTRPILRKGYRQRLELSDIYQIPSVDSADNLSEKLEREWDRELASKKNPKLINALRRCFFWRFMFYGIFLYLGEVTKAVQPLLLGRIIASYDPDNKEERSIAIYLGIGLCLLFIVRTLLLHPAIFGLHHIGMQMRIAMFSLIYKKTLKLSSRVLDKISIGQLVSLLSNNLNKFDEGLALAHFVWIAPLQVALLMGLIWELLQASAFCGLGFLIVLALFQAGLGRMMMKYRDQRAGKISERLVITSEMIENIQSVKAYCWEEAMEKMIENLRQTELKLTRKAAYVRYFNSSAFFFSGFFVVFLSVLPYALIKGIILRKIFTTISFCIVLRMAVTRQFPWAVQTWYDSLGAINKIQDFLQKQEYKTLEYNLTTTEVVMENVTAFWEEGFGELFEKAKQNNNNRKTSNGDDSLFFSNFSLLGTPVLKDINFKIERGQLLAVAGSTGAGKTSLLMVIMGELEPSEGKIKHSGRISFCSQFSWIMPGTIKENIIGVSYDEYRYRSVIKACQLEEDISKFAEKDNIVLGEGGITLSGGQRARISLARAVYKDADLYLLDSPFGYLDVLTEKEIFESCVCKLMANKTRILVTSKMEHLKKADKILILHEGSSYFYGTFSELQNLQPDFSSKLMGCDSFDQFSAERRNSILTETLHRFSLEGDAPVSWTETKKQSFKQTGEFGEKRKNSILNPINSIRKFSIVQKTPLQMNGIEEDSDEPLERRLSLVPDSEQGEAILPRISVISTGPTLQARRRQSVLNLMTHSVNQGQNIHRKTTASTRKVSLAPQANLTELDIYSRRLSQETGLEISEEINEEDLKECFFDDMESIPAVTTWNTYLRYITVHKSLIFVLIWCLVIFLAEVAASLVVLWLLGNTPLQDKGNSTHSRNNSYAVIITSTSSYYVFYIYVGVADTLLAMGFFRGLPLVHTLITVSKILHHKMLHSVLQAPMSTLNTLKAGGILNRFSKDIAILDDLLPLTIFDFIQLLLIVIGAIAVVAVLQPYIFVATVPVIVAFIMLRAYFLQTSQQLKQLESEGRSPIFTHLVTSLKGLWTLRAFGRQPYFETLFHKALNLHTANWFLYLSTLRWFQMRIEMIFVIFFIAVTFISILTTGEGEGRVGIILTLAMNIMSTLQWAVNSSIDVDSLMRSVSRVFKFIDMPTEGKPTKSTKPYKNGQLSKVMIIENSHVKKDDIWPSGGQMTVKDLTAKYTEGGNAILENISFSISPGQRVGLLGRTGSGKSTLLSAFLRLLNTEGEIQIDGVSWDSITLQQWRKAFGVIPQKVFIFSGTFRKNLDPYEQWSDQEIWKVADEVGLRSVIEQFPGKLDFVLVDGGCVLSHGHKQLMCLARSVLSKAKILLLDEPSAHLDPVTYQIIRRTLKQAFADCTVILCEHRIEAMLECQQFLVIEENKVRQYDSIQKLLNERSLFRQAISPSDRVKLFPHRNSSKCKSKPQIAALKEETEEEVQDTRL

The target in test [2] is T1, CFTR. Briefly: Membrane Potential Dye, Enteroid Assay A. Format: cell-based. To be noted: for EC50: read-out: Ent. A EC50. On the procedure:
Base medium (ADF+++) consisted of Advanced […], 2 mM Glutamax, 10 mM HEPES, 1 μg/mL penicillin/streptomycin.
Intestinal enteroid maintenance medium (IEMMN) consisted of ADF+++, 1× B27 supplement, 1× N2 supplement, 1.25 mM N-acetyl cysteine, 10 mM Nicotinamide, 50 ng/mL hEGF, 10 nM Gastrin, 1 μg/mL hR-spondin-1, 100 ng/mL hNoggin, TGF-b type 1 inhibitor A-83-01, 100 μg/mL Primocin, 10 μM P38 MAPK inhibitor SB202190.
Bath 1 Buffer consisted of 1 mM MgCl2, 160 mM NaCl, 4.5 mM KCl, 10 mM HEPES, 10 mM Glucose, 2 mM CaCl2).
Chloride Free Buffer consisted of 1 mM Magnesium Gluconate, 2 mM Calcium Gluconate, 4.5 mM Potassium Gluconate, 160 mM Sodium Gluconate, 10 mM HEPES, 10 mM Glucose.
Bath 1 Dye Solution consisted of Bath 1 Buffer, 0.04% Pluronic F127, 20 μM Methyl Oxonol, 30 μM CaCCinh-A01, 30 μM Chicago Sky Blue.
Chloride Free Dye Solution consisted of Chloride Free Buffer, 0.04% Pluronic F127, 20 μM Methyl Oxonol, 30 μM CaCCinh-A01, 30 μM Chicago Sky Blue.
Chloride Free Dye Stimulation Solution consisted of Chloride Free Dye Solution, 10 μM forskolin, 100 μM IBMX, and 300 nM Compound III.
Human intestinal epithelial enteroid cells were obtained from the Hubrecht Institute for Developmental Biology and Stem Cell Research, Utrecht, The Netherlands and expanded in T-Flasks as previously described (Dekkers J F, Wiegerinck C L, de Jonge H R, Bronsveld I, Janssens H M, de Winter-de Groot K M, Brandsma A M, de Jong N W M, Bijvelds M J C, Scholte B J, Nieuwenhuis E E S, van den Brink S, Clevers H, van der Ent C K, Middendorp S and M Beekman J M. A functional CFTR assay using primary cystic fibrosis intestinal organoids. Nat Med. 2013 July; 19(7):939-45.).
3. Enteroid Cell Harvesting and Seeding
Cells were recovered in cell recovery solution, collected by centrifugation at 650 rpm for 5 min at 4° C., resuspended in TrypLE and incubated for 5 min at 37° C. Cells were then collected by centrifugation at 650 rpm for 5 min at 4° C. and resuspended in IEMM containing 10 μM ROCK inhibitor (RI). The cell suspension was passed through a 40 μm cell strainer and resuspended at 1×10^6 cells/mL in IEMM containing 10 μM RI. Cells were seeded at 5000 cells/well into multi-well plates and incubated for overnight at 37° C., 95% humidity and 5% CO2 prior to assay.
4. Membrane Potential Dye, Enteroid Assay A
Enteroid cells were incubated with test compound in IEMM for 18-24 hours at 37° C., 95% humidity and 5% CO2. […] Briefly, cells were washed 5 times in Bath 1 Buffer. Bath 1 Dye Solution was added, and the cells were incubated for 25 min at room temperature. Following dye incubation, cells were washed 3 times in Chloride Free Dye Solution. Chloride transport was initiated by addition of Chloride Free Dye Stimulation Solution and the fluorescence signal was read for 15 min. […] Chloride transport was then expressed as a percentage of the chloride transport following treatment with 3 μM N-[(6-amino-2-pyridyl)sulfonyl]-6-(3-fluoro-5-isobutoxy-phenyl)-2-[(4S)-2,2,4-trimethylpyrrolidin-1-yl]pyridine-3-carboxamide, 3 μM (R)-1-(2,2-difluorobenzo[d][1,3]dioxol-5-yl)-N-(1-(2,3-dihydroxypropyl)-6-fluoro-2-(1-hydroxy-2-methylpropan-2-yl)-1H-indol-5-yl)cyclopropanecarboxamide and 300 nM acute N-[2,4-bis(1,1-dimethylethyl)-5-hydroxyphenyl]-1,4-dihydro-4-oxoquinoline-3-carboxamide triple combination control (% Activity).

The results in this text go back to US20230382925A1, “MODULATORS OF CYSTIC FIBROSIS TRANSMEMBRANE CONDUCTANCE REGULATOR” (VERTEX PHARMACEUTICALS INCORPORATED, priority 2020, published 2023).

In general, EC50 refers to the midpoint of the concentration-response curve.

Bounds are passed on as bounds.

`CNC(=O)[C@H]1CC2(C1)C[C@H](N1C(=O)c3cccc(c3)S(=O)(=O)Nc3nc(cc(-c4c(C)cccc4C)n3)OC[C@H]1CC(C)C)C2` (stereo in doubt) [Compound 346]: at CFTR [1], the “Ent. B Max Activity (%)” value is given as “+++ (+++ is >60%)” and the EC50 is less than 1 µM. At CFTR [2], the “Ent. A Max Activity (%)” value was “+++ (+++ is >60%)” and the EC50 was less than 1 µM.

On to `Cc1cccc(C)c1-c1cc2nc(n1)NS(=O)(=O)c1cccc(c1)C(=O)N([C@H]1C[C@@H](C#N)C1)[C@H](CC(C)C)CO2` (stereo in doubt) [Compound 469], for which, on CFTR [1], the “Ent. B Max Activity (%)” value is “+++ (+++ is >60%)” and the EC50 was less than 1 µM. On CFTR [2], the “Ent. A Max Activity (%)” value was “+++ (+++ is >60%)” and the EC50 was less than 1 µM.

For the molecule `Cc1cccc(C)c1-c1cc2nc(n1)NS(=O)(=O)c1cccc(c1)C(=O)N(C1CC3(CCNCC3)C1)[C@H](CC(C)C)CO2` [Compound 14, (11R)-12-(7-Azaspiro[3.5]nonan-2-yl)-6-(2,6-dimethylphenyl)-11-isobutyl-2,2-dioxo-9-oxa-2λ^6-thia-3,5,12,19-tetrazatricyclo[12.3.1.14,8]nonadeca-1(18),4(19),5,7,14,16-hexaen-13-one], at CFTR [1], the “Ent. B Max Activity (%)” value is “+++ (+++ is >60%)” and the EC50 is less than 1 µM. Further, at CFTR [2], the “Ent. A Max Activity (%)” value is reported as “+++ (+++ is >60%)” and the half-maximal effective concentration (EC50) lay within 3 to 30 µM.

For the molecule `Cc1cccc(C)c1-c1cc2nc(n1)NS(=O)(=O)c1cccc(c1)C(=O)N(C1CC3(CCN(C)CC3)C1)[C@H](CC(C)C)CO2` [Compound 15, (11R)-6-(2,6-Dimethylphenyl)-11-isobutyl-12-(7-methyl-7-azaspiro[3.5]nonan-2-yl)-2,2-dioxo-9-oxa-2λ^6-thia-3,5,12,19-tetrazatricyclo[12.3.1.14,8]nonadeca-1(18),4(19),5,7,14,16-hexaen-13-one], on CFTR [1], the “Ent. B Max Activity (%)” value is recorded as “+++ (+++ is >60%)” and the EC50 was less than 1 µM. In addition, at CFTR [2], the “Ent. A Max Activity (%)” value is “+++ (+++ is >60%)” and the EC50 was less than 1 µM.

Take `CC(=O)N1CCC2(CC1)CC(N1C(=O)c3cccc(c3)S(=O)(=O)Nc3nc(cc(-c4c(C)cccc4C)n3)OC[C@H]1CC(C)C)C2` [Compound 16, (11R)-12-(7-Acetyl-7-azaspiro[3.5]nonan-2-yl)-6-(2,6-dimethylphenyl)-11-isobutyl-2,2-dioxo-9-oxa-2λ^6-thia-3,5,12,19-tetrazatricyclo[12.3.1.14,8]nonadeca-1(18),4(19),5,7,14,16-hexaen-13-one]: at CFTR [1], the “Ent. B Max Activity (%)” value is on record as “+++ (+++ is >60%)” and the EC50 is less than 1 µM. At CFTR [2], the “Ent. A Max Activity (%)” value is “+++ (+++ is >60%)” and the EC50 was less than 1 µM.

Regarding `COC(=O)N1CCC2(CC1)CC(N1C(=O)c3cccc(c3)S(=O)(=O)Nc3nc(cc(-c4c(C)cccc4C)n3)OC[C@H]1CC(C)C)C2` [Compound 19, methyl 2-[(11R)-6-(2,6-dimethylphenyl)-11-isobutyl-2,2,13-trioxo-9-oxa-2λ^6-thia-3,5,12,19-tetrazatricyclo[12.3.1.14,8]nonadeca-1(18),4(19),5,7,14,16-hexaen-12-yl]-7-azaspiro[3.5]nonane-7-carboxylate], on CFTR [1], the “Ent. B Max Activity (%)” value is on record as “+++ (+++ is >60%)” and the EC50 is less than 1 µM. Further, on CFTR [2], the “Ent. A Max Activity (%)” value is on record as “+++ (+++ is >60%)” and the EC50 is less than 1 µM.

Turning to `CC(=O)N1CC2(CC(N3C(=O)c4cccc(c4)S(=O)(=O)Nc4nc(cc(-c5c(C)cccc5C)n4)OC[C@H]3CC(C)C)C2)C1` [Compound 335], at CFTR [2], the “Ent. A Max Activity (%)” value is recorded as “++ (++ is 30-60%)” and the EC50 is less than 1 µM.

For `CC(=O)N1C[C@H]2C[C@H](N3C(=O)c4cccc(c4)S(=O)(=O)Nc4nc(cc(-c5c(C)cccc5C)n4)OC[C@H]3CC(C)C)C[C@H]2C1` [Compound 336], at CFTR [2], the “Ent. A Max Activity (%)” value is listed as “++ (++ is 30-60%)” and the EC50 is less than 1 µM.

As to `Cc1cccc(C)c1-c1cc2nc(n1)NS(=O)(=O)c1cccc(c1)C(=O)N(C1CC3(CCCCC3)C1)[C@H](CC(C)C)CO2` [Compound 338], on CFTR [2], the “Ent. A Max Activity (%)” value is recorded as “++ (++ is 30-60%)” and the EC50 was less than 1 µM.

`Cc1cccc(C)c1-c1cc2nc(n1)NS(=O)(=O)c1cccc(c1)C(=O)N(C1CC3(CCCC3)C1)[C@H](CC(C)C)CO2` [Compound 339]: at CFTR [2], the “Ent. A Max Activity (%)” value is given as “+++ (+++ is >60%)” and the EC50 is less than 1 µM.

Turning to `Cc1cccc(C)c1-c1cc2nc(n1)NS(=O)(=O)c1cccc(c1)C(=O)N(C1CC3(CCN(CCC(C)(C)C)CC3)C1)[C@H](CC(C)C)CO2` [Compound 340], at CFTR [2], the “Ent. A Max Activity (%)” value is “+++ (+++ is >60%)” and the EC50 is less than 1 µM.

Consider `Cc1cccc(C)c1-c1cc2nc(n1)NS(=O)(=O)c1cccc(c1)C(=O)N(C1CC3(CCN(C[C@H](O)CO)CC3)C1)[C@H](CC(C)C)CO2` [Compound 341], for which, on CFTR [2], the “Ent. A Max Activity (%)” value was “+++ (+++ is >60%)” and the EC50 was less than 1 µM.

For `Cc1cccc(C)c1-c1cc2nc(n1)NS(=O)(=O)c1cccc(c1)C(=O)N([C@H]1CC3(C[C@H](C(=O)N(C)C)C3)C1)[C@H](CC(C)C)CO2` (stereo partly shown) [Compound 342], on CFTR [2], the “Ent. A Max Activity (%)” value is reported as “+++ (+++ is >60%)” and the EC50 was less than 1 µM.

For the molecule `Cc1cccc(C)c1-c1cc2nc(n1)NS(=O)(=O)c1cccc(c1)C(=O)N(C1CCC(C)(C)C1)[C@H](CC(C)C)CO2` (stereo partly shown) [Compound 348], at CFTR [2], the “Ent. A Max Activity (%)” value was “+++ (+++ is >60%)” and the EC50 was less than 1 µM.

For `Cc1cccc(C)c1-c1cc2nc(n1)NS(=O)(=O)c1cccc(c1)C(=O)N(C1CC3(CC3)C1)[C@@H](CC1(C(F)(F)F)CC1)CO2` [Compound 351], at CFTR [2], the “Ent. A Max Activity (%)” value is on record as “+ (+ is <300%)” and the EC50 was less than 1 µM.

Take `COC(=O)N1CCC2(CC1)CC(N1C(=O)c3cccc(c3)S(=O)(=O)Nc3nc(cc(C4CCCCC4(C)C)n3)OC[C@H]1CC(C)C)C2` (stereo partly shown) [Compound 395]: on CFTR [2], the “Ent. A Max Activity (%)” value was “++ (++ is 30-60%)” and the EC50 is less than 1 µM.

Turning to `COC(=O)N1CCC2(CC1)CC(N1C(=O)c3cccc(c3)S(=O)(=O)Nc3nc(cc(C4CCCCC4(C)C)n3)OC[C@H]1CC(C)C)C2` (stereo partly shown) [Compound 396], at CFTR [2], the “Ent. A Max Activity (%)” value is reported as “++ (++ is 30-60%)” and the EC50 was less than 1 µM.

In the case of `CC(C)C[C@@H]1COc2cc(C3CCCCC3(C)C)nc(n2)NS(=O)(=O)c2cccc(c2)C(=O)N1C1CC2(CCNCC2)C1` (stereo partly shown) [Compound 399], on CFTR [2], the “Ent. A Max Activity (%)” value was “+++ (+++ is >60%)” and the EC50 is less than 1 µM.

Turning to `CC(C)C[C@@H]1COc2cc(C3CCCCC3(C)C)nc(n2)NS(=O)(=O)c2cccc(c2)C(=O)N1C1CC2(CCN(C(=O)OC(C)(C)C)CC2)C1` (stereo partly shown) [Compound 400], at CFTR [2], the “Ent. A Max Activity (%)” value is “++ (++ is 30-60%)” and the EC50 is less than 1 µM.

Turning to `Cc1cccc(C)c1-c1cc2nc(n1)NS(=O)(=O)c1cccc(c1)C(=O)N(C1CCN(C)CC1)CCO2` [Compound 438], the “Ent. A Max Activity (%)” value on CFTR [2] is “+ (+ is <300%)”.

As for `Cc1cccc(C)c1-c1cc2nc(n1)NS(=O)(=O)c1cccc(c1)C(=O)N(C1CCOCC1)CCO2` [Compound 439], on CFTR [2], the “Ent. A Max Activity (%)” value is listed as “+++ (+++ is >60%)” and the EC50 fell in the range of 3 to 30 µM.

In the case of `CC(C)C[C@@H]1COc2cc(-c3ccccc3-c3ccccc3)nc(n2)NS(=O)(=O)c2cccc(c2)C(=O)N1C1CC2(CCN(C)CC2)C1` [Compound 471], on CFTR [2], the “Ent. A Max Activity (%)” value was “+++ (+++ is >60%)” and the EC50 is less than 1 µM.
